ChEMBL document CHEMBL1201862, “PubChem BioAssay data set” (2004)
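Values below derive from 48-hour exposures of cells grown in 96-well plates, with endpoints linearly interpolated between the two concentrations bracketing the appropriate inhibition level. The concentration for 50% growth inhibition is given as GI50.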 Calls of active or inactive are those of the source. Rule as the data show it: active = GI50 up to about 1.1 µM and inactive = higher.

What was measured:
Experiment in all cases: DTP human tumour cell line panel, 48 h
NCI-H23 = tested on: NCI-H23
DMS-114 = tested on: DMS-114
RPMI-8226 = tested on: RPMI-8226
MDA-N = tested on: MDA-N
EKVX = tested on: EKVX
SW-620 = tested on: SW-620
DU-145 = tested on: DU-145
ACHN = tested on: ACHN
HL-60 = tested on: HL-60
SK-MEL-28 = tested on: SK-MEL-28
A498 = tested on: A498
KM-20L2 = tested on: KM-20L2
OVCAR-5 = tested on: OVCAR-5
HT-29 = tested on: HT-29
LXFL 529 = tested on: LXFL 529
CCRF-CEM = tested on: CCRF-CEM
KM12 = tested on: KM12
M19-MEL = tested on: M19-MEL
SK-MEL-2 = tested on: SK-MEL-2
RXF 393 = tested on: RXF 393
HCT-15 = tested on: HCT-15
M14 = tested on: M14
Hs-578T = tested on: Hs-578T
BT-549 = tested on: BT-549
TK-10 = tested on: TK-10
SN12C = tested on: SN12C
CAKI-1 = tested on: CAKI-1
NCI-H226 = tested on: NCI-H226
HOP-18 = tested on: HOP-18
U-251 = tested on: U-251
NCI-H522 = tested on: NCI-H522
IGROV-1 = tested on: IGROV-1
MOLT-4 = tested on: MOLT-4
OVCAR-3 = tested on: OVCAR-3
786-0 = tested on: 786-0
XF498 = tested on: XF498
MDA-MB-435 = tested on: MDA-MB-435
HOP-92 = tested on: HOP-92
T47D = tested on: T47D
A549 = tested on: A549
DMS-273 = tested on: DMS-273
OVCAR-8 = tested on: OVCAR-8
SF-295 = tested on: SF-295
HCC 2998 = tested on: HCC 2998
UACC-62 = tested on: UACC-62
SK-OV-3 = tested on: SK-OV-3
SR = tested on: SR
K562 = tested on: K562
SNB-75 = tested on: SNB-75
UACC-257 = tested on: UACC-257
SF-268 = tested on: SF-268
COLO 205 = tested on: COLO 205
SNB-19 = tested on: SNB-19
NCI/ADR-RES = tested on: NCI/ADR-RES
OVCAR-4 = tested on: OVCAR-4
NCI-H460 = tested on: NCI-H460
LOX IMVI = tested on: LOX IMVI
HOP-62 = tested on: HOP-62
SK-MEL-5 = tested on: SK-MEL-5
HCT-116 = tested on: HCT-116
UO-31 = tested on: UO-31
MDA-MB-231 = tested on: MDA-MB-231
Malme-3M = tested on: Malme-3M
SF-539 = tested on: SF-539
MCF7 = tested on: MCF7
PC-3 = tested on: PC-3
DLD-1 = tested on: DLD-1
SNB-78 = tested on: SNB-78

Measured: GI50

CC(=O)OCC1C(=O)OCC1C(=O)N1Cc2cc3ccccc3nc2C1 (centres undefined)
1.95 µM: HCT-15
inactive: NCI-H23 3.39 µM | DMS-114 13.6 µM | RPMI-8226 1.37 µM | MDA-N 2.75 µM | EKVX 8.05 µM | DU-145 4.5 µM | ACHN 1.36 µM | SK-MEL-28 2.55 µM | A498 5.08 µM | KM-20L2 3.84 µM | OVCAR-5 5.69 µM | HT-29 2.78 µM | LXFL 529 1.8 µM | KM12 16.2 µM | M19-MEL 8.05 µM | SK-MEL-2 8.15 µM | RXF 393 1.17 µM | M14 1.56 µM | Hs-578T 7.14 µM | BT-549 2.17 µM | TK-10 1.61 µM | SN12C 5.27 µM | NCI-H226 5.96 µM | HOP-18 2.47 µM | U-251 11.3 µM | IGROV-1 10.1 µM | MOLT-4 1.44 µM | OVCAR-3 1.57 µM | 786-0 1.58 µM | XF498 1.82 µM | MDA-MB-435 2.42 µM | HOP-92 1.24 µM | T47D 1.15 µM | A549 15.3 µM | DMS-273 5.09 µM | OVCAR-8 3.2 µM | SF-295 16.1 µM | HCC 2998 10.4 µM | UACC-62 3.46 µM | SK-OV-3 16.7 µM | SR 1.49 µM | SNB-75 4.58 µM | UACC-257 2.47 µM | SF-268 7.41 µM | SNB-19 17.7 µM | OVCAR-4 1.65 µM | NCI-H460 13.3 µM | LOX IMVI 2.45 µM | HOP-62 16.6 µM | SK-MEL-5 10.2 µM | HCT-116 1.27 µM | UO-31 3.95 µM | MDA-MB-231 6.4 µM | Malme-3M 1.46 µM | SF-539 6 µM | MCF7 1.48 µM | PC-3 7.45 µM | DLD-1 1.61 µM
active: SW-620 0.469 µM | HL-60 0.794 µM | CCRF-CEM 0.488 µM | CAKI-1 0.955 µM | NCI-H522 0.714 µM | K562 0.676 µM | COLO 205 0.653 µM | NCI/ADR-RES 0.69 µM

CCOc1ccc2[nH]c3c(C)c4cc[n+](C)cc4c(C)c3c2c1
inactive: RPMI-8226 18.3 µM | EKVX 4.24 µM | SW-620 2.05 µM | HL-60 7.85 µM | SK-MEL-28 3.1 µM | KM-20L2 4.95 µM | HT-29 3.99 µM | CCRF-CEM 2.88 µM | KM12 2.4 µM | SK-MEL-2 2.42 µM | RXF 393 8.71 µM | M14 8.41 µM | HOP-18 4.03 µM | IGROV-1 2.25 µM | OVCAR-3 3.93 µM | HOP-92 2.5 µM | A549 1.95 µM | HCC 2998 3.27 µM | UACC-62 2.77 µM | SK-OV-3 2.92 µM | K562 2.1 µM | UACC-257 4.25 µM | OVCAR-4 3.61 µM | NCI-H460 1.89 µM | SK-MEL-5 1.55 µM | HCT-116 3 µM | UO-31 20.9 µM | DLD-1 1.66 µM
active: NCI-H23 0.838 µM | LXFL 529 0.348 µM | SNB-78 0.662 µM | SN12C 0.279 µM | NCI-H226 0.451 µM | U-251 0.228 µM | NCI-H522 1.11 µM | 786-0 0.255 µM | SF-295 0.25 µM | SF-268 0.271 µM | SF-539 0.65 µM

O=c1cc2ccccc2nn1-c1ccccc1Cl
92.5 µM: HCT-15
inactive: NCI-H23 67.9 µM | DMS-114 48.3 µM | RPMI-8226 42.4 µM | EKVX > 100 µM | SW-620 > 100 µM | ACHN > 100 µM | SK-MEL-28 > 100 µM | A498 > 100 µM | KM-20L2 > 100 µM | OVCAR-5 > 100 µM | HT-29 > 100 µM | CCRF-CEM 86.3 µM | KM12 > 100 µM | SNB-78 > 100 µM | M19-MEL > 100 µM | SK-MEL-2 > 100 µM | M14 > 100 µM | TK-10 > 100 µM | SN12C > 100 µM | CAKI-1 > 100 µM | NCI-H226 > 100 µM | HOP-18 > 100 µM | U-251 > 100 µM | IGROV-1 > 100 µM | OVCAR-3 81.3 µM | 786-0 > 100 µM | XF498 27 µM | HOP-92 > 100 µM | A549 > 100 µM | DMS-273 78.5 µM | OVCAR-8 > 100 µM | SF-295 > 100 µM | HCC 2998 > 100 µM | UACC-62 89.3 µM | SK-OV-3 > 100 µM | K562 59.6 µM | SNB-75 59.6 µM | UACC-257 > 100 µM | SF-268 85.7 µM | COLO 205 > 100 µM | SNB-19 > 100 µM | OVCAR-4 > 100 µM | NCI-H460 > 100 µM | LOX IMVI > 100 µM | HOP-62 > 100 µM | SK-MEL-5 69 µM | HCT-116 74.5 µM | UO-31 26.2 µM | Malme-3M > 100 µM | SF-539 > 100 µM | DLD-1 > 100 µM

CCCCCCCCCCCCCC(=O)OC1C(O)C(CO)OC(OC)C1NC(=O)N(CCCl)N=O (centres undefined)
> 100 µM: HCT-15
inactive: NCI-H23 28.6 µM | RPMI-8226 30.8 µM | SW-620 > 100 µM | ACHN 41.4 µM | SK-MEL-28 > 100 µM | KM-20L2 > 100 µM | OVCAR-5 > 100 µM | HT-29 56.6 µM | LXFL 529 > 100 µM | KM12 > 100 µM | M19-MEL > 100 µM | SK-MEL-2 > 100 µM | RXF 393 47 µM | M14 > 100 µM | TK-10 > 100 µM | SN12C 37 µM | CAKI-1 > 100 µM | NCI-H226 > 100 µM | HOP-18 > 100 µM | U-251 25.6 µM | NCI-H522 72.9 µM | IGROV-1 > 100 µM | MOLT-4 17.3 µM | OVCAR-3 > 100 µM | XF498 48.9 µM | A549 83.9 µM | DMS-273 71.1 µM | OVCAR-8 43.6 µM | SF-295 29 µM | HCC 2998 > 100 µM | UACC-62 5.06 µM | SR 23.2 µM | K562 > 100 µM | SNB-75 38.6 µM | UACC-257 28.8 µM | SF-268 6.27 µM | COLO 205 > 100 µM | SNB-19 23.7 µM | OVCAR-4 > 100 µM | NCI-H460 18.7 µM | LOX IMVI 22.5 µM | HOP-62 50.7 µM | SK-MEL-5 45.2 µM | UO-31 > 100 µM | Malme-3M > 100 µM | SF-539 16.4 µM | DLD-1 > 100 µM

O=C(CC1(O)C(=O)Nc2c(Cl)cc(Cl)cc21)c1ccc([N+](=O)[O-])cc1 (centres undefined)
> 55.3 µM: HCT-15
inactive: NCI-H23 29.9 µM | DMS-114 23.8 µM | RPMI-8226 26.9 µM | EKVX 43.4 µM | SW-620 28.3 µM | ACHN 38.6 µM | HL-60 7.89 µM | SK-MEL-28 > 44 µM | A498 29.9 µM | KM-20L2 > 78 µM | OVCAR-5 > 100 µM | HT-29 > 58.9 µM | LXFL 529 25.6 µM | CCRF-CEM 26.7 µM | KM12 > 54.8 µM | SNB-78 > 47.8 µM | M19-MEL 10.3 µM | SK-MEL-2 > 56.4 µM | RXF 393 > 100 µM | M14 > 41.6 µM | TK-10 > 100 µM | SN12C > 45.7 µM | CAKI-1 > 53.8 µM | NCI-H226 30.6 µM | HOP-18 > 100 µM | U-251 31.7 µM | NCI-H522 19.4 µM | IGROV-1 > 52.2 µM | MOLT-4 > 59.4 µM | OVCAR-3 33.7 µM | 786-0 85.3 µM | XF498 56.5 µM | HOP-92 24.3 µM | A549 > 79.8 µM | DMS-273 > 62.4 µM | OVCAR-8 > 51.5 µM | SF-295 > 66.1 µM | HCC 2998 38 µM | UACC-62 28.1 µM | SK-OV-3 > 100 µM | SR > 51.3 µM | K562 43.4 µM | SNB-75 29.2 µM | UACC-257 33.3 µM | SF-268 > 50.8 µM | COLO 205 > 58.5 µM | SNB-19 > 100 µM | OVCAR-4 17.5 µM | NCI-H460 86.5 µM | LOX IMVI > 100 µM | HOP-62 > 100 µM | SK-MEL-5 22.8 µM | HCT-116 > 42.2 µM | UO-31 17.4 µM | Malme-3M > 43.9 µM | SF-539 > 46.7 µM | DLD-1 > 43.4 µM
